# Measured values as given in US20090155784A1, “ASSESSMENT OF ASTHMA AND ALLERGEN-DEPENDENT GENE EXPRESSION” (Wyeth, priority 2007, published 2009).
# Test system: human whole blood
# Test: human whole blood assay verifying inhibitory activity of the inhibitor samples
# Assay type: cell-based
smiles,measurement,value
CC(c1cc2ccccc2s1)N(O)C(N)=O (stereo not shown) [Zileuton],inhibitory activity in a human whole blood assay,verified
